The structures appear in SMILES notation. Numbered stars: 1 amine (or outer) side, 2 acyl side, 3 side chain; on linkers, the order of the positions; unused ones are H or OH. Square brackets hold non-standard residues; d marks the D form. Side chains are listed from the residue outwards. Peptide text beside a SMILES is read from it. * marks the point of attachment. C18 diacid = O=C(O)CCCCCCCCCCCCCCCCC(=O)*; γGlu = O=C(O)[C@H](CCC(=O)[*:2])N[*:1]; AEEA = NCCOCCOCC(=O)O; Aib = CC(C)(N)C(=O)O

Data set [1] can be described thus: Thioflavin T (ThT) fibrillation assay for physical stability. As to conditions: 250 μM in 10 mM HEPES buffer, pH 7.5, 37° C., shaking 960 rpm. It is filed as physicochemical. The method in brief:
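Fibrillation was followed by ThT (1 μM) fluorescence every 20 min, 444/485 nm, for 250 μM peptide in 10 mM HEPES pH 7.5 shaken at 960 rpm, 37° C. Lag time (t0−2τ) and apparent rate constant (1/τ) come from a sigmoidal fit. Recovery is % of initial concentration remaining soluble after centrifugation and filtration (RP-HPLC).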

The nature of data set [2]: Chemical stability assessment by RP-UPLC. It is filed as physicochemical. To be noted: 333 μM, 8 mM phosphate buffer pH 7.3, 37° C. vs 5° C. The gist of the method: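 Purity loss = (purity after 14 days at 5° C. minus that at 37° C.) relative to the 5° C. value, purity being main-peak area % by RP-UPLC with UV at 215 nm. Samples were 333 μM in 8 mM phosphate, pH 7.3; gradient adjusted for outlying retention times.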

As to `CC(C)C[C@H](NC(=O)[C@H](Cc1c[nH]c2ccccc12)NC(=O)[C@H](CCC(N)=O)NC(=O)[C@@H](NC(=O)[C@H](Cc1ccccc1)NC(=O)[C@H](CCC(=O)O)NC(=O)[C@H](CCCNC(=N)N)NC(=O)[C@H](C)NC(=O)[C@H](CCCNC(=N)N)NC(=O)[C@H](CCCNC(=N)N)NC(=O)C(C)(C)NC(=O)[C@H](CC(=O)O)NC(=O)[C@H](CC(C)C)NC(=O)[C@H](Cc1ccc(O)cc1)NC(=O)[C@H](CCCCN)NC(=O)[C@H](CO)NC(=O)[C@H](CC(C)C)NC(=O)[C@H](CC(=O)O)NC(=O)[C@H](CO)NC(=O)[C@@H](NC(=O)[C@H](Cc1ccccc1)NC(=O)[C@@H](NC(=O)CNC(=O)[C@H](CCC(N)=O)NC(=O)C(C)(C)NC(=O)[C@@H](N)Cc1c[nH]cn1)[C@@H](C)O)[C@@H](C)O)C(C)C)C(=O)N[C@@H](CC(C)C)C(=O)N[C@@H](CCCCNC(=O)CC[C@H](NC(=O)CC[C@H](NC(=O)COCCOCCNC(=O)COCCOCCNC(=O)CC[C@H](NC(=O)CCCCCCCCCCCCCCCCC(=O)O)C(=O)O)C(=O)O)C(=O)O)C(=O)N[C@H](C(N)=O)[C@@H](C)O` [Example 51, N^ε28-[(4S)-4-carboxy-4-[[(4S)-4-carboxy-4-[[2-[2-[2-[[2-[2-[2-[[(4S)-4-carboxy-4-(17-carboxyheptadecanoylamino)butanoyl]amino]ethoxy]ethoxy]acetyl]amino]ethoxy]ethoxy]acetyl]amino]butanoyl]amino]butanoyl]-[Aib2,Leu10,Aib16,Arg20,Glu21,Leu27,Lys28]-Glucagon amide] (H-H[Aib]QGTFTSDLSKYLD[Aib]RRAREFVQWLLK([γGlu-γGlu-AEEA-AEEA-γGlu-C18 diacid])T-NH2; N-terminus assumed), the THT assay Lag time (Ex. 76) in data set [1] worked out at 45 h. The “Purity loss; 14 days at 37° C.” value in data set [2] is reported as 3%.

`CC(C)C[C@H](NC(=O)[C@H](Cc1ccc(O)cc1)NC(=O)[C@H](CCCCN)NC(=O)[C@H](CO)NC(=O)[C@H](CC(C)C)NC(=O)[C@H](CC(=O)O)NC(=O)[C@H](CO)NC(=O)[C@@H](NC(=O)[C@H](Cc1ccccc1)NC(=O)[C@@H](NC(=O)CNC(=O)[C@H](CCC(N)=O)NC(=O)C(C)(C)NC(=O)[C@@H](N)Cc1c[nH]cn1)[C@@H](C)O)[C@@H](C)O)C(=O)N[C@@H](CCC(=O)O)C(=O)N[C@@H](CO)C(=O)N[C@@H](CCCCN)C(=O)N[C@@H](CCCNC(=N)N)C(=O)N[C@@H](C)C(=O)N[C@@H](CCCNC(=N)N)C(=O)N[C@@H](CCC(=O)O)C(=O)N[C@@H](Cc1ccccc1)C(=O)N[C@H](C(=O)N[C@@H](CCC(N)=O)C(=O)N[C@@H](Cc1c[nH]c2ccccc12)C(=O)N[C@@H](CC(C)C)C(=O)N[C@@H](CC(C)C)C(=O)N[C@@H](CCCCNC(=O)CC[C@H](NC(=O)CC[C@H](NC(=O)[C@H](CO)NC(=O)[C@H](CCC(=O)O)NC(=O)[C@H](CO)NC(=O)CC[C@H](NC(=O)CC[C@H](NC(=O)CCCCCCCCCCCCCCCCC(=O)O)C(=O)O)C(=O)O)C(=O)O)C(=O)O)C(=O)N[C@H](C(N)=O)[C@@H](C)O)C(C)C` [Example 54, N^ε28-[(4S)-4-carboxy-4-[[(4S)-4-carboxy-4-[[(2S)-2-[[(2S)-4-carboxy-2-[[(2S)-2-[[(4S)-4-carboxy-4-[[(4S)-4-carboxy-4-(17-carboxyheptadecanoylamino)butanoyl]amino]butanoyl]amino]-3-hydroxypropanoyl]amino]butanoyl]amino]-3-hydroxypropanoyl]amino]butanoyl]amino]butanoyl]-[Aib2,Leu10,Glu15,Lys17,Arg20,Glu21,Leu27,Lys28]-Glucagon amide] (H-H[Aib]QGTFTSDLSKYLESKRAREFVQWLLK([γGlu-γGlu-Ser-Glu-Ser-γGlu-γGlu-C18 diacid])T-NH2; N-terminus assumed) displayed a THT assay Lag time (Ex. 76) in data set [1] of 45 h. Moreover, the “Purity loss; 14 days at 37° C.” value in data set [2] stood at 1%.

Regarding `CC(C)C[C@H](NC(=O)[C@H](CC(=O)O)NC(=O)[C@H](CC(C)C)NC(=O)[C@H](Cc1ccc(O)cc1)NC(=O)[C@H](CCCCN)NC(=O)[C@H](CO)NC(=O)[C@H](CC(C)C)NC(=O)[C@H](CC(=O)O)NC(=O)[C@H](CO)NC(=O)[C@@H](NC(=O)[C@H](Cc1ccccc1)NC(=O)[C@@H](NC(=O)CNC(=O)[C@H](CCC(N)=O)NC(=O)C(C)(C)NC(=O)[C@@H](N)Cc1c[nH]cn1)[C@@H](C)O)[C@@H](C)O)C(=O)N[C@@H](CCCNC(=N)N)C(=O)N[C@@H](CCCNC(=N)N)C(=O)N[C@@H](C)C(=O)N[C@@H](CCCNC(=N)N)C(=O)N[C@@H](CC(=O)O)C(=O)N[C@@H](Cc1ccccc1)C(=O)N[C@H](C(=O)N[C@@H](CCC(N)=O)C(=O)N[C@@H](Cc1c[nH]c2ccccc12)C(=O)N[C@@H](CC(C)C)C(=O)N[C@@H](CC(C)C)C(=O)N[C@@H](CCCCNC(=O)CNC(=O)[C@H](CO)NC(=O)[C@H](CCC(=O)O)NC(=O)[C@H](CO)NC(=O)CC[C@H](NC(=O)CC[C@H](NC(=O)CCCCCCCCCCCCCCCCC(=O)O)C(=O)O)C(=O)O)C(=O)N[C@H](C(N)=O)[C@@H](C)O)C(C)C` [Example 55, N^ε28-[2-[[(2S)-2-[[(2S)-4-carboxy-2-[[(2S)-2-[[(4S)-4-carboxy-4-[[(4S)-4-carboxy-4-(17-carboxyheptadecanoylamino)butanoyl]amino]butanoyl]amino]-3-hydroxypropanoyl]amino]butanoyl]amino]-3-hydroxypropanoyl]amino]acetyl]-[Aib2,Leu10,Leu16,Arg20,Leu27,Lys28]-Glucagon amide] (H-H[Aib]QGTFTSDLSKYLDLRRARDFVQWLLK([Gly-Ser-Glu-Ser-γGlu-γGlu-C18 diacid])T-NH2; N-terminus assumed), the THT assay Lag time (Ex. 76) in data set [1] stood at 45 h. In addition, the “Purity loss; 14 days at 37° C.” value in data set [2] was 2%.

Turning to `CC(C)C[C@H](NC(=O)[C@H](Cc1ccc(O)cc1)NC(=O)[C@H](CCCCN)NC(=O)[C@H](CO)NC(=O)[C@H](CC(C)C)NC(=O)[C@H](CC(=O)O)NC(=O)[C@H](CO)NC(=O)[C@@H](NC(=O)[C@H](Cc1ccccc1)NC(=O)[C@@H](NC(=O)CNC(=O)[C@H](CCC(N)=O)NC(=O)C(C)(C)NC(=O)[C@@H](N)Cc1c[nH]cn1)[C@@H](C)O)[C@@H](C)O)C(=O)N[C@@H](CC(=O)O)C(=O)N[C@@H](CO)C(=O)N[C@@H](CCCNC(=N)N)C(=O)N[C@@H](CCCNC(=N)N)C(=O)N[C@@H](C)C(=O)N[C@@H](CCCNC(=N)N)C(=O)N[C@@H](CCC(=O)O)C(=O)N[C@@H](Cc1ccccc1)C(=O)N[C@H](C(=O)N[C@@H](CCC(N)=O)C(=O)N[C@@H](Cc1c[nH]c2ccccc12)C(=O)N[C@@H](CC(C)C)C(=O)N[C@@H](CC(C)C)C(=O)N[C@@H](CCCCNC(=O)CC[C@H](NC(=O)CC[C@H](NC(=O)COCCOCCNC(=O)COCCOCCNC(=O)CC[C@H](NC(=O)CCCCCCCCCCCCCCCCC(=O)O)C(=O)O)C(=O)O)C(=O)O)C(=O)N[C@H](C(N)=O)[C@@H](C)O)C(C)C` [Example 56, N^ε28-[(4S)-4-carboxy-4-[[(4S)-4-carboxy-4-[[2-[2-[2-[[2-[2-[2-[[(4S)-4-carboxy-4-(17-carboxyheptadecanoylamino)butanoyl]amino]ethoxy]ethoxy]acetyl]amino]ethoxy]ethoxy]acetyl]amino]butanoyl]amino]butanoyl]-[Aib2,Leu10,Arg20,Glu21,Leu27,Lys28]-Glucagon amide] (H-H[Aib]QGTFTSDLSKYLDSRRAREFVQWLLK([γGlu-γGlu-AEEA-AEEA-γGlu-C18 diacid])T-NH2), the THT assay Lag time (Ex. 76) in data set [1] turned out to be 45 h. The “Purity loss; 14 days at 37° C.” value in data set [2] was 4%.

Consider `CC(C)C[C@H](NC(=O)[C@H](Cc1ccc(O)cc1)NC(=O)[C@H](CCCCN)NC(=O)[C@H](CO)NC(=O)[C@H](CC(C)C)NC(=O)[C@H](CC(=O)O)NC(=O)[C@H](CO)NC(=O)[C@@H](NC(=O)[C@H](Cc1ccccc1)NC(=O)[C@@H](NC(=O)CNC(=O)[C@H](CCC(N)=O)NC(=O)C(C)(C)NC(=O)[C@@H](N)Cc1c[nH]cn1)[C@@H](C)O)[C@@H](C)O)C(=O)N[C@@H](CCC(=O)O)C(=O)N[C@@H](CO)C(=O)N[C@@H](CCCNC(=N)N)C(=O)N[C@@H](CCCNC(=N)N)C(=O)N[C@@H](C)C(=O)N[C@@H](CCCNC(=N)N)C(=O)N[C@@H](CCC(=O)O)C(=O)N[C@@H](Cc1ccccc1)C(=O)N[C@H](C(=O)N[C@@H](CCC(N)=O)C(=O)N[C@@H](Cc1c[nH]c2ccccc12)C(=O)N[C@@H](CC(C)C)C(=O)N[C@@H](CC(C)C)C(=O)N[C@@H](CCCCNC(=O)CC[C@H](NC(=O)CC[C@H](NC(=O)COCCOCCNC(=O)COCCOCCNC(=O)CC[C@H](NC(=O)CC[C@H](NC(=O)CCCCCCCCCCCCCCCCC(=O)O)C(=O)O)C(=O)O)C(=O)O)C(=O)O)C(=O)N[C@H](C(N)=O)[C@@H](C)O)C(C)C` [Example 60, N^ε28-[(4S)-4-carboxy-4-[[(4S)-4-carboxy-4-[[2-[2-[2-[[2-[2-[2-[[(4S)-4-carboxy-4-[[(4S)-4-carboxy-4-(17-carboxyheptadecanoylamino)butanoyl]amino]butanoyl]amino]ethoxy]ethoxy]acetyl]amino]ethoxy]ethoxy]acetyl]amino]butanoyl]amino]butanoyl]-[Aib2,Leu10,Glu15,Arg20,Glu21,Leu27,Lys28]-Glucagon amide] (H-H[Aib]QGTFTSDLSKYLESRRAREFVQWLLK([γGlu-γGlu-AEEA-AEEA-γGlu-γGlu-C18 diacid])T-NH2; N-terminus assumed), for which the THT assay Lag time (Ex. 76) in data set [1] was 45 h. Also, the “Purity loss; 14 days at 37° C.” value in data set [2] is 4%.

Values taken from patent US9474790B2, “Stable, protracted GLP-1/glucagon receptor co-agonists for medical use” (Novo Nordisk A/S, priority 2013, dated 2016).
